Results: patent US20250195513A1, “DEGRADATION OF IRAK4 BY CONJUGATION OF IRAK4 INHIBITORS WITH E3 LIGASE LIGAND AND METHODS OF USE” (BeiGene, Ltd., priority 2022, published 2025)

Legend:
[1] = target: T1, IRAK4 (Homo sapiens, UniProt Q9NWZ3); test: IRAK4 Degradation Assay (Karpas299, HTRF/TR-FRET); format: cell-based; conditions: Karpas-299 cells; for Dmax: maximum percentage of degradation
T1 construct: endogenous in cells; host or cells: Karpas299
T1 sequence (Q9NWZ3 1-460): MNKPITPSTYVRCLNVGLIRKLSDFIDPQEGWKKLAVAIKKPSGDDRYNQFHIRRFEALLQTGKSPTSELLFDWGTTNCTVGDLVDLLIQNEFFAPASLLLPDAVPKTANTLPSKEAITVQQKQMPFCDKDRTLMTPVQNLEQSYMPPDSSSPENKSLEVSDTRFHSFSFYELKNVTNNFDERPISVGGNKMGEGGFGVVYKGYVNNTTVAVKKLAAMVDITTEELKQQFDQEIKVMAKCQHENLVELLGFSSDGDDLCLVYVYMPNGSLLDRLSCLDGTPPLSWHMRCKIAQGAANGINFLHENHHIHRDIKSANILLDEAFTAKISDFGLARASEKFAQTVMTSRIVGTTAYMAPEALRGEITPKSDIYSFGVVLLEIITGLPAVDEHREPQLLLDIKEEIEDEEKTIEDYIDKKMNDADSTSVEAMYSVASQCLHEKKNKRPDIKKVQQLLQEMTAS
How it was run: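 Compound potency as DC50 (IC50) came from four-parameter fits of percent IRAK4 degradation. IRAK4 was measured by HTRF (665/620 nm) in lysates of Karpas299 cells seeded at 0.2 million per well. Cells had been treated with compound dilutions for 5 or 24 h.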

[2] = target: T1, IRAK4; test: IRAK4 Degradation Assay with Human Serum (Karpas299, HTRF/TR-FRET); format: cell-based; conditions: Karpas-299 in human serum, 24 hrs treatment; for DC50: read-out: IRAK4 degradtion with human serum assay DC50; for Dmax: read-out: IRAK4 degradtion with human serum assay Dmax (%)
How it was run: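 Remaining IRAK4 measured by TR-FRET immunoassay on lysates of Karpas299 cells exposed 24 h to compound dilution series in human serum AB. DC50 derived from a Hill-slope fit of % degradation versus concentration.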

[3] = 24 h treatment, read-out: IRAK4 in Karpas-299 (24 h) Dmax (%)
[4] = 24 h treatment, read-out: IRAK4 in Karpas-299 (24 h) DC50
[5] = 5 h treatment, read-out: IRAK4 in Karpas-299 (5 h) Dmax (%)
[6] = 5 h treatment, read-out: IRAK4 in Karpas-299 (5 h) DC50

Row | Structure (SMILES) | Dmax [1, 3] [%] | DC50 [1, 4] [nM] | DC50 [2] [nM] | Dmax [2] [%] | Dmax [1, 5] [%] | DC50 [1, 6] [nM]
1 | CC(C)(O)c1cc2nn([C@H]3CC[C@H](N4CCN(C(=O)N5CCN(c6ccc(C7CCC(=O)NC7=O)cc6)CC5)CC4)CC3)cc2cc1NC(=O)c1ccc2cc(C#N)cnn12 (some centres unmarked) [Example 292, 3-cyano-N-(2-((1r,4r)-4-(4-(4-(4-(2,6-dioxopiperidin-3-yl)phenyl)piperazine-1-carbonyl)piperazin-1-yl)cyclohexyl)-6-(2-hydroxypropan-2-yl)-2H-indazol-5-yl)pyrrolo[1,2-b]pyridazine-7-carboxamide] | 94 | 1.8 | 37 | 95 | – | –
2 | CC(C)(O)c1cc2nn([C@H]3CC[C@H](N4CCN(C5CCN(c6cc(F)c(N7CCC(=O)NC7=O)c(F)c6)CC5)CC4)CC3)cc2cc1NC(=O)c1ccc2cc(C#N)cnn12 [Example 293, 3-cyano-N-(2-((1r,4r)-4-(4-(1-(4-(2,4-dioxotetrahydropyrimidin-1(2H)-yl)-3,5-difluorophenyl)piperidin-4-yl)piperazin-1-yl)cyclohexyl)-6-(2-hydroxypropan-2-yl)-2H-indazol-5-yl)pyrrolo[1,2-b]pyridazine-7-carboxamide] | 96 | 9.4 | 9.4 | 96 | – | –
3 | CC(C)(O)c1cc2nn([C@H]3CC[C@H](N4CCN([C@@H]5CCN(c6ccc(N7CCC(=O)NC7=O)cc6)C5)CC4)CC3)cc2cc1NC(=O)c1ccc2cc(C#N)cnn12 [Example 294, 3-cyano-N-(2-((1R,4r)-4-(4-((R)-1-(4-(2,4-dioxotetrahydropyrimidin-1(2H)-yl)phenyl)pyrrolidin-3-yl)piperazin-1-yl)cyclohexyl)-6-(2-hydroxypropan-2-yl)-2H-indazol-5-yl)pyrrolo[1,2-b]pyridazine-7-carboxamide] | 97 | 3.4 | 14 | 98 | – | –
4 | Cc1cc(C2CCC(=O)NC2=O)c(F)cc1[C@H]1C[C@@H](N2CCN([C@H]3CC[C@H](n4cc5cc(NC(=O)c6ccc7cc(C#N)cnn67)c(C(C)(C)O)cc5n4)CC3)CC2)C1 (stereo partly drawn) [Example 296, 3-cyano-N-(2-((1R,4r)-4-(4-((1s,3S)-3-(4-(2,6-dioxopiperidin-3-yl)-5-fluoro-2-methylphenyl)cyclobutyl)piperazin-1-yl)cyclohexyl)-6-(2-hydroxypropan-2-yl)-2H-indazol-5-yl)pyrrolo[1,2-b]pyridazine-7-carboxamide] | 97 | 1.8 | 18 | 100 | 91 | 5.4
5 | Cc1cc(C2CCC(=O)NC2=O)c(F)cc1[C@H]1C[C@H](N2CCN([C@H]3CC[C@H](n4cc5cc(NC(=O)c6ccc7cc(C#N)cnn67)c(C(C)(C)O)cc5n4)CC3)CC2)C1 (stereo partly drawn) [Example 297, 3-cyano-N-(2-((1R,4r)-4-(4-((1r,3R)-3-(4-(2,6-dioxopiperidin-3-yl)-5-fluoro-2-methylphenyl)cyclobutyl)piperazin-1-yl)cyclohexyl)-6-(2-hydroxypropan-2-yl)-2H-indazol-5-yl)pyrrolo[1,2-b]pyridazine-7-carboxamide] | 97 | 1.4 | 6 | 99 | 96 | 3.4
6 | C[C@@H]1CN(CC2CN(c3cc(F)c([C@H]4CCC(=O)NC4=O)c(F)c3)C2)CCN1[C@H]1CC[C@H](n2cc3cc(NC(=O)c4ccc5cc(C#N)cnn45)c(C(C)(C)O)cc3n2)CC1 [Example 300, 3-cyano-N-(2-((1R,4r)-4-((R)-4-((1-(4-((R)-2,6-dioxopiperidin-3-yl)-3,5-difluorophenyl)azetidin-3-yl)methyl)-2-methylpiperazin-1-yl)cyclohexyl)-6-(2-hydroxypropan-2-yl)-2H-indazol-5-yl)pyrrolo[1,2-b]pyridazine-7-carboxamide] | 96 | 0.9 | 2.4 | 102 | – | –
7 | C[C@@H]1CN(C(=O)C2CN(c3cc(F)c(N4CCC(=O)NC4=O)c(F)c3)C2)CCN1[C@H]1CC[C@H](n2cc3cc(NC(=O)c4ccc5cc(C#N)cnn45)c(C(C)(C)O)cc3n2)CC1 [Example 303, 3-cyano-N-(2-((1R,4r)-4-((R)-4-(1-(4-(2,4-dioxotetrahydropyrimidin-1(2H)-yl)-3,5-difluorophenyl)azetidine-3-carbonyl)-2-methylpiperazin-1-yl)cyclohexyl)-6-(2-hydroxypropan-2-yl)-2H-indazol-5-yl)pyrrolo[1,2-b]pyridazine-7-carboxamide] | 101 | 0.4 | 16 | 101 | – | –
8 | C[C@H]1CN(CCc2cc(F)c([C@H]3CCC(=O)NC3=O)c(F)c2)CCN1[C@H]1CC[C@H](n2cc3cc(NC(=O)c4ccc5cc(C#N)cnn45)c(C(C)(C)O)cc3n2)CC1 [Example 305, 3-cyano-N-(2-((1S,4r)-4-((S)-4-(4-((R)-2,6-dioxopiperidin-3-yl)-3,5-difluorophenethyl)-2-methylpiperazin-1-yl)cyclohexyl)-6-(2-hydroxypropan-2-yl)-2H-indazol-5-yl)pyrrolo[1,2-b]pyridazine-7-carboxamide] | 96 | 1.7 | 5.1 | 99 | – | –

Continued, values first:

Row | Dmax [1, 3] [%] | DC50 [1, 4] [nM] | DC50 [2] [nM] | Dmax [2] [%] | Dmax [1, 5] [%] | DC50 [1, 6] [nM] | Structure (SMILES)
9 | 98 | 1.3 | 8.3 | 100 | – | – | C[C@H]1CN(CC2CN(c3cc(F)c([C@H]4CCC(=O)NC4=O)c(F)c3)C2)CCN1[C@H]1CC[C@H](n2cc3cc(NC(=O)c4ccc5cc(C#N)cnn45)c(C(C)(C)O)cc3n2)CC1 [Example 306, 3-cyano-N-(2-((1S,4r)-4-((S)-4-((1-(4-((R)-2,6-dioxopiperidin-3-yl)-3,5-difluorophenyl)azetidin-3-yl)methyl)-2-methylpiperazin-1-yl)cyclohexyl)-6-(2-hydroxypropan-2-yl)-2H-indazol-5-yl)pyrrolo[1,2-b]pyridazine-7-carboxamide]
10 | 100 | 0.5 | 3.6 | 99 | – | – | C[C@H]1CN(C2CCN(c3cc(F)c([C@H]4CCC(=O)NC4=O)c(F)c3)CC2)CCN1[C@H]1CC[C@H](n2cc3cc(NC(=O)c4ccc5cc(C#N)cnn45)c(C(C)(C)O)cc3n2)CC1 [Example 307, 3-cyano-N-(2-((1S,4r)-4-((S)-4-(1-(4-((R)-2,6-dioxopiperidin-3-yl)-3,5-difluorophenyl)piperidin-4-yl)-2-methylpiperazin-1-yl)cyclohexyl)-6-(2-hydroxypropan-2-yl)-2H-indazol-5-yl)pyrrolo[1,2-b]pyridazine-7-carboxamide]
11 | 97 | 1.5 | 8.9 | 99 | – | – | C[C@H]1CN(C2CN(c3cc(F)c([C@H]4CCC(=O)NC4=O)c(F)c3)C2)CCN1[C@H]1CC[C@H](n2cc3cc(NC(=O)c4ccc5cc(C#N)cnn45)c(C(C)(C)O)cc3n2)CC1 [Example 308, 3-cyano-N-(2-((1S,4r)-4-((S)-4-(1-(4-((R)-2,6-dioxopiperidin-3-yl)-3,5-difluorophenyl)azetidin-3-yl)-2-methylpiperazin-1-yl)cyclohexyl)-6-(2-hydroxypropan-2-yl)-2H-indazol-5-yl)pyrrolo[1,2-b]pyridazine-7-carboxamide]
12 | 98 | 0.6 | 3.2 | 102 | – | – | C[C@@H]1CN([C@H]2CC[C@H](n3cc4cc(NC(=O)c5ccc6cc(C#N)cnn56)c(C(C)(C)O)cc4n3)CC2)CCN1CC1CN(c2cc(F)c([C@H]3CCC(=O)NC3=O)c(F)c2)C1 [Example 310, 3-cyano-N-(2-((1R,4r)-4-((R)-4-((1-(4-((R)-2,6-dioxopiperidin-3-yl)-3,5-difluorophenyl)azetidin-3-yl)methyl)-3-methylpiperazin-1-yl)cyclohexyl)-6-(2-hydroxypropan-2-yl)-2H-indazol-5-yl)pyrrolo[1,2-b]pyridazine-7-carboxamide]
13 | 97 | 2.4 | 34 | 99 | – | – | C[C@H]1CN([C@H]2CC[C@H](n3cc4cc(NC(=O)c5ccc6cc(C#N)cnn56)c(C(C)(C)O)cc4n3)CC2)CCN1C(=O)C1CN(c2cc(F)c(N3CCC(=O)NC3=O)c(F)c2)C1 [Example 312, 3-cyano-N-(2-((1S,4r)-4-((S)-4-(1-(4-(2,4-dioxotetrahydropyrimidin-1(2H)-yl)-3,5-difluorophenyl)azetidine-3-carbonyl)-3-methylpiperazin-1-yl)cyclohexyl)-6-(2-hydroxypropan-2-yl)-2H-indazol-5-yl)pyrrolo[1,2-b]pyridazine-7-carboxamide]
